Assay [1] deals with T1, hCav2.2 (N-type) calcium channel: human Cav2.2α (α1B) subunit with human β3 and α2δ1 auxiliary subunits (Homo sapiens, UniProt Q00975).
T1 construct: expressed in transfected cells; plasmids pCIN5-hCav2.2, pCIH-hCav β3, pCIP-α2δ1
Briefly: hCav2.2 assay (N-type), IonWorks planar array electrophysiology in stable HEK293 cells. Format: cell-based. As to conditions: hydrochloride. The protocol:
Compounds as defined in the first or second aspect may be tested for in vitro biological activity in the hCav2.2 assay (N-type) in accordance with the following studies:
Stable cell lines expressing the human Cav2.2α (α1B) subunit, along with the human β3 and α2δ1 auxiliary subunits were created following sequential transfection and selection of human embryonic kidney (HEK293) cells. HEK293 cells were cultured in Dulbecco's modified Eagles media/F12 media (Invitrogen, Cat #041-95750V) containing 10% fetal bovine serum, with added L-glutamine (2 mM; Invitrogen, Cat #25030-024) and non-essential amino acids (5%; Invitrogen, Cat #11140-035). […] These clonal cell lines were assessed for Cav2.2 α/β3-mediated current expression using the IonWorks planar array electrophysiology technology (described below). […]
Currents were recorded at room temperature (21-23° C.) using the IonWorks planar array electrophysiology technology (Molecular Devices Corp.). […] In all experiments, the test pulse protocol was performed in the absence (pre-read) and presence (post-read) of a compound. Pre- and post-reads were separated by a compound addition followed by a 3-3.5 min incubation. […]
Background: In patch-clamp work, channel activity is measured electrically.

Assay [2] has as its target T2, hCav3.2 channels (T-type; CACNA1H) (Homo sapiens, UniProt O95180, V664A).
T2 construct: predicted protein is equivalent to the full-length human variant NP_066921; expressed in transfected cells; plasmid pCIN5-human-alpha1H
Briefly: Cav3.2 assay (T-type), IonWorks Quattro planar array electrophysiology in stable HEK293 cells. Format: cell-based. To be noted: for IC50: current elicited by the 1st depolarising pulse inhibited by 50%, read-out: pIC50 (tonic) (converted). From the text: The ability of the compounds of the invention to modulate the voltage-gated calcium channel subtype Cav3.2 (T-Type) may be determined by the following assay.
Stable cell lines expressing hCav3.2 channels were created by transfecting HEK293 cells with the plasmid pCIN5-human-alpha1H. pCIN5-human-alpha1H predicted protein is equivalent to the full-length human variant NP_066921 for the human ion channel CACNA1H (voltage dependent calcium channel T type alpha 1H subunit), the longer variant form. It contains minor alleles for two SNPs (Ala 664 and Arg 2077). However, in the absence of any knowledge about compound binding at this ion channel, these rare variants are not seen as issues. Stable cell line was selected by 500 ug/ml G418 (geneticin). The best cell line clone was selected by IonWorks. Cells were cultured in DMEM/F12 medium supplemented by 10% Foetal Bovine Serum (Gibco/Invitrogen #041-95750), 1% non-essential amino acids (PAA, M11-003) and 1% Penicillin-Streptomycin (Invitrogen, 15140-122). 500 ug/ml of G418 (PAA, P11-012) was added to maintain channel expression. Cells were grown and maintained at 37° C. in a humidified environment containing 5% CO2 in air. Cells were detached from the T175 culture flask for passage and harvesting using TrypLE (Gibco/Invitrogen cat #12604). For the experiment, cells were plated in a T175 culture flask 48 hours before running the assay to reach a 50-80% confluence the day of the experiment.
Cells were grown to 50-80% confluence in a T175 flask. Cells were removed from the incubator and the media was aspirated. Cells were washed with 5 ml of warmed (37° C.) TrypLE and then 3 ml of warmed (37° C.) TrypLE was added to the flask for 6 min. The flask was tapped to dislodge cells and 5 ml of warmed (37° C.) external buffer with barium and magnesium was added to prepare a cell suspension. Cell suspension was then placed into a 15 ml centrifuge tube and centrifuged for 2 min at 1000 rpm. After centrifugation, the supernatant was removed and the cell pellet was resuspended in 4-5 ml of pre-warmed (37° C.) external solution with barium and magnesium using a 5 ml pipette to break up the pellet.
Currents were recorded at room temperature using the IonWorks Quattro™ planar array electrophysiology technology (Molecular Devices Corp.) with PatchPlate™ PPC for Ionworks Quattro (Molecular Devices, 9000-0902). Stimulation protocols and data acquisition were carried out using a microcomputer (Dell Pentium 4). In order to determine planar electrode hole resistances (Rp), a 10 mV voltage step was applied across each well. These measurements were performed before cell addition. After cell addition a seal test was performed by applying a voltage step from −80 mV to −70 mV for 160 ms prior to antibiotic amphotericin-B solution (Sigma, […]) circulation to achieve intracellular access. Leak subtraction was conducted in all experiments by applying a 80 ms hyperpolarizing (10 mV) prepulse followed by a 80 ms at the holding potential before the test pulses, to measure leak current. Test pulses stepping from the holding potential of −120 mV to −40 mV were applied for 25 ms and repeated 10 times at a frequency of 3 Hz. In all experiments, the test pulse protocol was performed in the absence (pre-read) and presence (post-read) of a compound. Pre- and post-reads were separated by a compound addition followed by a 10 minute incubation.
The intracellular solution contained the following (in mM): K-gluconate 120, KCl 20, MgCl2 5, EGTA 5, HEPES 10, adjusted to pH 7.35.
Amphotericin-B solution was prepared as 50 mg/ml stock solution in DMSO and diluted to a final working concentration of 0.2 mg/ml in intracellular solution. The external solution contained the following (in mM): Na-gluconate 120, NaCl 20, HEPES 10, MgCl2 1, BaCl2 5, with a pH of 7.35.
Compounds were prepared in DMSO as 10 mM stock solutions and subsequent 1:3 serial dilutions were performed. […]

Several values for one entry are separate records, joined by “and”; a condition that tells them apart may be missing. Equal entries are not always repeated. Structures can show the parent of a compound that is named as a salt. Bounds are passed on as bounds.

T2 sequence (O95180 whole entry V664A): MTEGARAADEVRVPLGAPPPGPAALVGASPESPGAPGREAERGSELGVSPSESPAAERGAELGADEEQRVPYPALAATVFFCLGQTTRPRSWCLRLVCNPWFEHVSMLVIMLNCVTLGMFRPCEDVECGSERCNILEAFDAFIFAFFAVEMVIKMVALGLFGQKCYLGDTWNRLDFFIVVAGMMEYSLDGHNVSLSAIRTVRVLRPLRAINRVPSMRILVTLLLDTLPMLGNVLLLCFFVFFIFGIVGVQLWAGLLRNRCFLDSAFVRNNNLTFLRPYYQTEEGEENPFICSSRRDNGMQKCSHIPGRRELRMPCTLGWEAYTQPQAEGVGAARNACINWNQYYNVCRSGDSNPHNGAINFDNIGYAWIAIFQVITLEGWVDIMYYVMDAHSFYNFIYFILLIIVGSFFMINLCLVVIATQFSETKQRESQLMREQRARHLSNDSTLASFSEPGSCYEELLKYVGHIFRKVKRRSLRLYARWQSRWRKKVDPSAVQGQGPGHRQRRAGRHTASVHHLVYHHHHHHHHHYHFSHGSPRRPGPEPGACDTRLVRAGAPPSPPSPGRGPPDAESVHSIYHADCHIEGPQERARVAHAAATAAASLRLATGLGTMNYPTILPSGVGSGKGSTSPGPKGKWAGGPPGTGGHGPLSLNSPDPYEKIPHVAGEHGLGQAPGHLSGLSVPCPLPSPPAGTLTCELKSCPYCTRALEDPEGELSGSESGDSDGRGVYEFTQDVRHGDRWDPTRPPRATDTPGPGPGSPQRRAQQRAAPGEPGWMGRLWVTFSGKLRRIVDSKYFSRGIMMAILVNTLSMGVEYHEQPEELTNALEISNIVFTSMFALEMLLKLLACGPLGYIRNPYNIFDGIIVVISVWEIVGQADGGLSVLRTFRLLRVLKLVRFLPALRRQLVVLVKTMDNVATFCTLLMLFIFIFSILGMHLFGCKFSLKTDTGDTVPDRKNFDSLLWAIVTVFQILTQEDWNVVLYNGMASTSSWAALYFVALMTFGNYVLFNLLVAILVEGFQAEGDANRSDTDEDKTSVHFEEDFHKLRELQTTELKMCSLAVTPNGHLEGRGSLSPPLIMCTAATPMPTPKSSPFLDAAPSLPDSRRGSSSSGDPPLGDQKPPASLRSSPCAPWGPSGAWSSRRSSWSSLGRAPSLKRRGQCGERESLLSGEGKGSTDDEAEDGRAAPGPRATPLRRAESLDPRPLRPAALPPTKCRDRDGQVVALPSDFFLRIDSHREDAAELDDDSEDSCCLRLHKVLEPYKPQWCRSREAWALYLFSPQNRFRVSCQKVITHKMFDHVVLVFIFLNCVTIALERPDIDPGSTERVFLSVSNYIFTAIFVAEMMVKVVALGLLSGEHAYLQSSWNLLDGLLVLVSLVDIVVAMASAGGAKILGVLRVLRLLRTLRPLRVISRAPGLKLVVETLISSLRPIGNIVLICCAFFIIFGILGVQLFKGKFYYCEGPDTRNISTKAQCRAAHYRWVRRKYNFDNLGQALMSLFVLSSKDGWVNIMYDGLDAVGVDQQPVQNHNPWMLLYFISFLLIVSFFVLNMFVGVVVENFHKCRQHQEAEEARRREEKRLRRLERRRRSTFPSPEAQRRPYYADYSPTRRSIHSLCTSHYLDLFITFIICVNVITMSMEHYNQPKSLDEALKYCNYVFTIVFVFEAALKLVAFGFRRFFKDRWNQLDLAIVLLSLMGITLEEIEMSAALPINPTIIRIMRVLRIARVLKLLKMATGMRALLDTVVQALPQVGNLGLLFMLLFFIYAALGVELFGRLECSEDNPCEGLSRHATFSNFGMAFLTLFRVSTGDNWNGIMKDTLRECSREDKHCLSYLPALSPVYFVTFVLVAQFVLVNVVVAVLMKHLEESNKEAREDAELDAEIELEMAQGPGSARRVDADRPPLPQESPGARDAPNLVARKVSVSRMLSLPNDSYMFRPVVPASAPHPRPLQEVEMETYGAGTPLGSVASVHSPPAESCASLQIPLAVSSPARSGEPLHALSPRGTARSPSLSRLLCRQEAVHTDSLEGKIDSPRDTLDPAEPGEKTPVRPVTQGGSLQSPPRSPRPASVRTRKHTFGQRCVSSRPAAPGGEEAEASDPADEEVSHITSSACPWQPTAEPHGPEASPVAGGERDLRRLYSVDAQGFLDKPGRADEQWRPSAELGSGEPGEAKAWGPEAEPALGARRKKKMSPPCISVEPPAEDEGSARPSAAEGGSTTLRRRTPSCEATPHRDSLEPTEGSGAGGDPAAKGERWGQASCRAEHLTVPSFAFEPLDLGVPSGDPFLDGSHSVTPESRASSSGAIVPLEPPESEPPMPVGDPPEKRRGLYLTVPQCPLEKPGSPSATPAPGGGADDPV

Turning to `Cl.O=C(c1ccc2ccccc2n1)N1CCN(S(=O)(=O)c2ccc(C(F)(F)F)cc2)CC1` [Compound 3, 2-[(4-{[4-(Trifluoromethyl)phenyl]sulfonyl}-1-piperazinyl)carbonyl]quinoline hydrochloride], the “pUD30 (use-dependent)” value in assay [1] (concentration producing 30% use-dependent inhibition, 10th versus 1st depolarising pulse, 10 Hz, -90 mV to +10 mV) turned out to be 5.8; in assay [2] (concentration producing 30% use-dependent inhibition, 10th versus 1st depolarising pulse, 3 Hz, -120 mV to -40 mV, hydrochloride), 5.4. Also, the “pIC50 (tonic)” value in assay [1] (current elicited by the 1st depolarising pulse inhibited by 50%) was determined as 4.6. Moreover, the IC50 in assay [2] was 25.1 µM and ≤ 31.6 µM.
Consider `Cc1cc(C#N)ccc1S(=O)(=O)N1CCN(C(=O)c2cccc3ccncc23)CC1` [Compound 26, 4-{[4-(8-Isoquinolinylcarbonyl)-1-piperazinyl]sulfonyl}-3-methylbenzonitrile hydrochloride], for which the IC50 in assay [2] was ≤ 31.6 µM.
Same read-out and setting: next, `Cc1ccc2ccc(C(=O)N3CCN(S(=O)(=O)c4ccc(C#N)cc4C)CC3)cc2n1` [Compound 9, 3-Methyl-4-({4-[(2-methyl-7-quinolinyl)carbonyl]-1-piperazinyl}sulfonyl)benzonitrile hydrochloride]: ≤ 31.6 µM; `O=C(c1cccc2cccnc12)N1CCN(S(=O)(=O)c2ccc(OC(F)(F)F)cc2)CC1` [Compound 30, 8-{[4-({4-[(Trifluoromethyl)oxy]phenyl}sulfonyl)-1-piperazinyl]carbonyl}quinoline]: ≤ 31.6 µM.
Same read-out and setting: next, `C[C@H]1CN(S(=O)(=O)c2ccc(C(F)(F)F)cc2)CCN1C(=O)c1ccc2cccnc2c1` [Compound 1, 7-[((2S)-2-Methyl-4-{[4-(trifluoromethyl)phenyl]sulfonyl}-1-piperazinyl)carbonyl]quinoline]: ≤ 31.6 µM.
On to `Cc1ccc2ccc(C(=O)N3CCN(S(=O)(=O)c4ccc(C#N)cc4C)C[C@@H]3C)cc2n1` [Compound 10, 3-Methyl-4-({(3S)-3-methyl-4-[(2-methyl-7-quinolinyl)carbonyl]-1-piperazinyl}sulfonyl)benzonitrile], for which the IC50 in assay [2] is ≤ 31.6 µM.
Turning to `Cc1c(C(=O)N2CCN(S(=O)(=O)c3ccc(OC(F)(F)F)cc3)CC2)ccc2cccnc12` [Compound 2, 8-Methyl-7-{[4-({4-[(trifluoromethyl)oxy]phenyl}sulfonyl)-1-piperazinyl]carbonyl}quinoline], the IC50 in assay [2] is ≤ 31.6 µM.
Same read-out and setting: next, `Cc1cc(C#N)ccc1S(=O)(=O)N1CCN(C(=O)c2ccc3cccnc3c2)CC1` [Compound 7, 3-Methyl-4-{[4-(7-quinolinylcarbonyl)-1-piperazinyl]sulfonyl}benzonitrile hydrochloride]: ≤ 31.6 µM.
Same read-out and setting: for `Cc1cc(C#N)ccc1S(=O)(=O)N1CCN(C(=O)c2ccc3cccnc3c2C)[C@@H](C)C1` [Compound 15, 3-Methyl-4-({(3S)-3-methyl-4-[(8-methyl-7-quinolinyl)carbonyl]-1-piperazinyl}sulfonyl)benzonitrile] the value was ≤ 31.6 µM.

The values are drawn from patent US8697703B2, “Piperazine derivatives for blocking Cav2.2 calcium channels” (Convergence Pharmaceuticals Limited, priority 2010, dated 2014).
